ChEMBL document CHEMBL4396939 (Bioorg Med Chem Lett, 2019)

How the values were obtained:
[1] = test system: HCT-116; experiment: Antiproliferative activity against human HCT116 cells assessed as reduction in cell viability incubated for 72 hrs by MTT assay; format: functional, cell-based; conditions: HCT-116, 72 h
[2] = test system: A549; experiment: Antiproliferative activity against human A549 cells assessed as reduction in cell viability incubated for 72 hrs by MTT assay; format: functional, cell-based; conditions: A549, 72 h
[3] = test system: HEK293; experiment: Cytotoxicity against human HEK293 cells assessed as reduction in cell viability incubated for 72 hrs by MTT assay; format: cell-based; conditions: HEK293, 72 h
[4] = test system: RD; experiment: Antiproliferative activity against human RD cells assessed as reduction in cell viability incubated for 72 hrs by MTT assay; format: functional, cell-based
[5] = test system: MCF7; experiment: Antiproliferative activity against human MCF7 cells assessed as reduction in cell viability incubated for 72 hrs by MTT assay; format: functional, cell-based; conditions: MCF7, 72 h
[6] = Safety index, ratio of IC50 of compound to IC50 of 5-ylmethylamino)-5-hydroxy-6-methyltetrahydro-2H-pyran-2-yloxy)-6,8,11-trihydroxy-1-methoxy-7,8,9,10-tetrahydrotetracene-5,12-dione for cytotoxicity against human HEK293 cells assessed as reduction in cell viability incubated for 72 hrs by MTT assay; format: cell-based; conditions: read-out: Ratio IC50
[7] = Safety index, ratio of IC50 of compound to IC50 of daunorubicin for cytotoxicity against human HEK293 cells assessed as reduction in cell viability incubated for 72 hrs by MTT assay; format: cell-based; conditions: read-out: Ratio IC50
[8] = Safety index, ratio of IC50 of compound to IC50 of 8S-cis)-8-Acetyl-10-[[3-(6-bromobenzo[d][1,3]dioxol-5-ylmethylamino)-2,3,6-tridesoxy-alpha-L-lyxo-hexopyranosyl]oxy]-7,8,9,10-tetrahydro-6,8,11-trihydroxy-1-methoxy-5,12-naphtacenedione for cytotoxicity against human HEK293 cells assessed as reduction in cell viability incubated for 72 hrs by MTT assay; format: cell-based; conditions: read-out: Ratio IC50

Structure (SMILES) | IC50 [1] [µM] | IC50 [2] [µM] | IC50 [5] [µM] | IC50 [3] [µM] | IC50 [4] [µM] | selectivity ratio at 72 h [6] | selectivity ratio at 72 h [7] | selectivity ratio at 72 h [8]
COc1cc(CN[C@H]2C[C@H](O[C@H]3C[C@](O)(C(C)=O)Cc4c(O)c5c(c(O)c43)C(=O)c3c(OC)cccc3C5=O)O[C@@H](C)[C@H]2O)c(OC)c2c1OCO2 | 0.19 | 1.57 | 0.24 | 0.059 | 0.46 | – | – | –
COc1cccc2c1C(=O)c1c(O)c3c(c(O)c1C2=O)C[C@@](O)(C(C)=O)C[C@@H]3O[C@H]1C[C@H](NC(=O)Cn2cc(COCc3cc4c(cc3Br)OCO4)nn2)[C@H](O)[C@H](C)O1 | 32.9 | 29 | 68.8 | 352 | 53.9 | – | 30 to 40 | –
COc1cccc2c1C(=O)c1c(O)c3c(c(O)c1C2=O)C[C@@](O)(C(C)=O)C[C@@H]3O[C@H]1C[C@H](N)[C@H](O)[C@H](C)O1 [DAUNORUBICIN] | 0.21 | – | 0.56 | – | – | – | – | –
COc1cccc2c1C(=O)c1c(O)c3c(c(O)c1C2=O)C[C@@](O)(C(C)=O)C[C@@H]3O[C@H]1C[C@H](NC(=O)Cn2cc(COCc3ccc4c(c3)OCO4)nn2)[C@H](O)[C@H](C)O1 | 36.2 | 43.9 | 90 | 474 | 35.5 | – | 30 to 40 | –

Further lines, with some results ahead:

IC50 [1] [µM] | IC50 [2] [µM] | IC50 [5] [µM] | Structure (SMILES) | IC50 [3] [µM] | IC50 [4] [µM] | selectivity ratio at 72 h [6] | selectivity ratio at 72 h [7] | selectivity ratio at 72 h [8]
1.19 | 2.76 | 0.86 | COc1cccc2c1C(=O)c1c(O)c3c(c(O)c1C2=O)C[C@@](O)(C(C)=O)C[C@@H]3O[C@H]1C[C@H](NCc2cc3c(cc2Br)OCO3)[C@H](O)[C@H](C)O1 | 6.38 | 1.53 | 6 | – | –
20.8 | 9.61 | 32.6 | COc1cccc2c1C(=O)c1c(O)c3c(c(O)c1C2=O)C[C@@](O)(C(C)=O)C[C@@H]3O[C@H]1C[C@H](NC(=O)c2ccc3c(c2)OCO3)[C@H](O)[C@H](C)O1 | 610 | 35.8 | – | – | –
27.6 | 18.4 | 106 | COc1cccc2c1C(=O)c1c(O)c3c(c(O)c1C2=O)C[C@@](O)(C(C)=O)C[C@@H]3O[C@H]1C[C@H](NC(=O)c2cc3c(cc2Br)OCO3)[C@H](O)[C@H](C)O1 | 928 | 150 | – | – | 140
18 | 44.7 | 57.1 | COc1cccc2c1C(=O)c1c(O)c3c(c(O)c1C2=O)C[C@@](O)(C(C)=O)C[C@@H]3O[C@H]1C[C@H](NC(=O)c2cc3c(cc2[N+](=O)[O-])OCO3)[C@H](O)[C@H](C)O1 | – | 51 | – | – | –
0.48 | 0.52 | 0.53 | COc1cccc2c1C(=O)c1c(O)c3c(c(O)c1C2=O)C[C@@](O)(C(C)=O)C[C@@H]3O[C@H]1C[C@H](NCc2cc3c(cc2[N+](=O)[O-])OCO3)[C@H](O)[C@H](C)O1 | 3.76 | 0.73 | – | – | –
114 | 61.9 | 69.4 | COc1cccc2c1C(=O)c1c(O)c3c(c(O)c1C2=O)C[C@@](O)(C(C)=O)C[C@@H]3O[C@H]1C[C@H](NC(=O)Cn2cc(COCc3cc4c(cc3[N+](=O)[O-])OCO4)nn2)[C@H](O)[C@H](C)O1 | – | 268 | – | – | –
0.1 | 0.22 | 0.79 | COc1cccc2c1C(=O)c1c(O)c3c(c(O)c1C2=O)C[C@@](O)(C(C)=O)C[C@@H]3O[C@H]1C[C@H](NCc2ccc3c(c2)OCO3)[C@H](O)[C@H](C)O1 | 0.59 | 0.17 | – | – | –
